Results taken from patent US6737383B1, “Herbicidal oxadiazolidines” (priority 1999, dated 2004).

What was measured:
[1] = system: rice; assay: Test B flood test rice; type: in vivo, Oryza sativa
Protocol: At the same time, these crop and weed species were also treated with postemergence applications of test chemicals formulated in the same manner. Plants ranged in height from 2 to 18 cm (1- to 4-leaf stage) for postemergence treatments. Plant species in the flood test consisted of rice (Oryza sativa), smallflower flatsedge (Cyperus difformis), duck salad (Heteranthera limosa) and bamyardgrass (Echinochloa crus-galli) grown to the 2-leaf stage for testing. Treated plants and controls were maintained in a greenhouse for twelve to sixteen days, after which all species were compared to controls and visually evaluated. Plant response ratings, summarized in Table B, are based on a scale of 0 to 10 where 0 is no effect and 10 is complete control. A dash (−) response means no test result.

[2] = system: duck salad; assay: Test B flood test duck salad; type: in vivo, Heteranthera limosa
Procedure, shortened: (§1)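 Flood test on plants grown to the 2-leaf stage; treated plants kept in greenhouse twelve to sixteen days, then visually rated against controls on a 0 (no effect) to 10 (complete control) scale.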

[3] = system: smallflower flatsedge; assay: Test B flood test smallflower flatsedge; type: in vivo, Cyperus difformis
Procedure, shortened: as §1

[4] = system: bamyardgrass; assay: Test B flood test barnyardgrass; type: in vivo, Echinochloa crus-galli
Procedure, shortened: as §1

[5] = Postemergence, Rate 62 g/ha, scale 0 to 10, 0 is no effect, 10 is complete control
[6] = Rate 125 g/ha, Postemergence section (flood test species), scale 0 to 10, 0 no effect, 10 complete control
[7] = Rate 500 g/ha, listed under Postemergence (flood test species), scale 0 to 10, 0 no effect, 10 complete control
[8] = flood test, listed under Postemergence, Rate 250 g/ha, scale 0 to 10, 0 no effect, 10 complete control
[9] = Rate 62 g/ha, flood test species, Pre-emergence, visual evaluation after twelve to sixteen days
[10] = Rate 125 g/ha, Pre-emergence, flood test species, scale 0 to 10 where 0 is no effect and 10 is complete control
[11] = Rate 250 g/ha, Pre-emergence, flood-test species, scale 0 to 10, 0 is no effect, 10 is complete control
[12] = Rate 500 g/ha, Pre-emergence, flood test species, scale 0 to 10 (0 no effect, 10 complete control)

CCN(CC)C(=O)n1oc(=O)n(Cc2ccccc2C)c1=O [Compound 84]
0: Rice plant response rating [1, 5] | Rice plant response rating [1, 6] | Rice plant response rating [1, 7] | Rice plant response rating [1, 8] | Ducksalad plant response rating [2, 5] | Ducksalad plant response rating [2, 6] | Ducksalad plant response rating [2, 7] | Ducksalad plant response rating [2, 8] | S. Flatsedge plant response rating [3, 5] | S. Flatsedge plant response rating [3, 6] | S. Flatsedge plant response rating [3, 7] | S. Flatsedge plant response rating [3, 8] | Barnyardgrass plant response rating [4, 5] | Barnyardgrass plant response rating [4, 6] | Barnyardgrass plant response rating [4, 7] | Barnyardgrass plant response rating [4, 8]

CC(C)N(C(=O)n1oc(=O)n(Cc2cccnc2)c1=O)c1ccc(F)cc1 [Compound 366]
0: Plant response rating, Rice (0 to 10 scale, 0 is no effect, 10 is complete control) [1, 9] | Rice plant response rating [1, 10] | Rice plant response rating [1, 11] | Rice plant response rating [1, 12] | Plant response rating, Ducksalad (0 to 10 scale, 0 is no effect, 10 is complete control) [2, 9] | Ducksalad plant response rating [2, 10] | Ducksalad plant response rating [2, 11] | Ducksalad plant response rating [2, 12] | Plant response rating, S. Flatsedge (0 to 10 scale, 0 is no effect, 10 is complete control) [3, 9] | S. Flatsedge plant response rating [3, 10] | S. Flatsedge plant response rating [3, 11] | S. Flatsedge plant response rating [3, 12] | Plant response rating, Barnyardgrass (0 to 10 scale, 0 is no effect, 10 is complete control) [4, 9] | Barnyardgrass plant response rating [4, 10] | Barnyardgrass plant response rating [4, 11] | Barnyardgrass plant response rating [4, 12]
